Measured values: article PMC4853826 (European heart journal. Cardiovascular pharmacotherapy, 2015)
Where “and” joins values, the source holds several entries; their conditions need not be identical. Identical values can stand only once.

Columns and labels:
neprilysin (NEP) = details: cited from earlier work
normal canines = assay: In vivo renal function, peptide infusion in normal canines; design: species or system canine; details: for RBF / GFR / DFRNa (distal fractional reabsorption of Na+) / PFRNa (proximal fractional reabsorption of Na+) / MAP: SEM
[1] = Post-I (after 30-min washout), lithium clearance, mean ± SEM
[2] = Pre-I (prior to infusion, baseline), lithium clearance technique, mean ± SEM
[3] = normal canines, infusion 32 mmol/kg/min

CNP: native C-type natriuretic peptide, 22 amino acids, selective pGC-B activator
susceptibility to enzymatic degradation by NEP (in words) (neprilysin (NEP)): highly susceptible | RBF (normal canines; 30 min I (16th-45th min of infusion, 32 mmol/kg/min), mean ± SEM): 294 ± 31 mL/min | RBF (normal canines; 60 min I (46th-75th min of infusion, 32 mmol/kg/min), mean ± SEM): 278 ± 29 mL/min | GFR (normal canines; Post-I (after 30-min washout), inulin clearance, mean ± SEM): 48.8 ± 5.6 mL/min | DFRNa (distal fractional reabsorption of Na+) (normal canines; [1]): 97±0.8% | PFRNa (proximal fractional reabsorption of Na+) (normal canines; [1]): 73±2% | RBF (normal canines; Post-I (after 30-min washout), mean ± SEM): 270 ± 25 mL/min | RBF (normal canines; Pre-I (prior to infusion, baseline), electromagnetic flow probe, mean ± SEM): 273 ± 26 mL/min | DFRNa (distal fractional reabsorption of Na+) (normal canines; [2]): 98±0.6% | PFRNa (proximal fractional reabsorption of Na+) (normal canines; [2]): 80±3% | MAP (normal canines; dog, in vivo, iv): 127±4 mmHg and 128±4 mmHg | GFR (normal canines; dog, in vivo): 52.3 ± 5.1 mL/min | MAP (normal canines; dog, in vivo): 123±4 mmHg and 128±4 mmHg | net renal generation of cGMP (in words) (normal canines; [3]): unchanged | plasma cGMP (in words) (normal canines; [3]): modestly increased | urinary cGMP excretion (in words) (normal canines; [3]): unchanged
